# Measured values: patent publication US9777034B2, “Modular synthesis of amphiphilic Janus glycodendrimers and their self-assembly into glycodendrimersomes” (The Trustees of The University of Pennsylvania, priority 2013, dated 2017)
# “Also recorded” adds a separate entry of the source.
# Legend:
# [1] = Cryo-TEM of assemblies formed in water; format: physicochemical
# [2] = Micropipette aspiration of giant glycodendrimersomes; settings: for elastic modulus of membrane: average of 11 (52dd) or 13 (51bc) vesicles; for critical area strain: giant vesicles; for behaviour in micropipette aspiration: giant vesicles prepared by hydration
# [3] = Self-assembly by injection of THF or ethanol solution into water or buffer, analysed by DLS (size, polydispersity, stability in time); settings: for stability of glycodendrimersomes in buffer: PBS and HEPES buffers
# Protocol: The resulting assemblies were first analyzed by dynamic light scattering (DLS) for size, polydispersity (PDI), and stability in time. Assemblies stable in time were subsequently analyzed by cryogenic-transmission electron microscopy (cryo-TEM) to determine their structure.
# Dynamic light scattering (DLS) was performed with a Malvern Instruments particle sizer (Zetasizer® Nano S, Malvern Instruments, UK) equipped with 4 mW He—Ne laser 633 nm and avalanche photodiode positioned at 175° to the beam and temperature controlled cuvette holder. Instrument parameters were determined automatically along with measurement times. Experiments were performed in triplicate. The Janus-dendrimer (1 mg) dissolved in 100 μL of THF was injected into 2 mL of ultrapure water or buffer followed by 5 seconds of vortex mixing. DLS experiments were measured at 25° C. Different final concentration of dendrimersomes in water was prepared from varying the starting concentration of THF solution with the same injection volume (100 μL) into constant 2.0 mL of ultrapure water or buffer.
# PA-IL = target: T1, PA-IL (Pseudomonas aeruginosa, UniProt Q05097); test: Agglutination of glycodendrimersomes with PA-IL; format: binding; settings: 10 mM HEPES, 1.0 mM MnCl2 and CaCl2
# T1 construct: purchased Sigma-Aldrich
# T1 sequence (Q05097 whole entry): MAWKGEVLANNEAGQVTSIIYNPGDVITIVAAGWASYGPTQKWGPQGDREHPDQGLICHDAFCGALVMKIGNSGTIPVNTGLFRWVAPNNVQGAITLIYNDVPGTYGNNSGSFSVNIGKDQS
# [4] = tested on: Viscum album L. agglutinin (VAA)
# galectin-3 (Gal-3) = target: T2, galectin-3 (Gal-3) (Homo sapiens, UniProt P17931); test: Agglutination of glycodendrimersomes with Gal-3; format: binding; settings: [52bd]=1.0 mg/mL, [Gal-3]=0-4.0 mg/mL, 10 mM HEPES
# T2 construct: made in house
# T2 sequence (P17931 whole entry): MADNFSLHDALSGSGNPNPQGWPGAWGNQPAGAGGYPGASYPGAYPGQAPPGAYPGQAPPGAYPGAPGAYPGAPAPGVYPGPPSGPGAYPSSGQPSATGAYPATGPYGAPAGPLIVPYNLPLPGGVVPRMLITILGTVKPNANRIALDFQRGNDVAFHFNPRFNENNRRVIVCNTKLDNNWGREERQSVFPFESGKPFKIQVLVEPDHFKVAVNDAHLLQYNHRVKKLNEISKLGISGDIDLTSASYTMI
# galectin-4 (Gal-4) = target: T3, galectin-4 (Gal-4) (Homo sapiens, UniProt P56470); test: Agglutination of glycodendrimersomes with Gal-4; format: binding; settings: [52bd]=1.0 mg/mL, [Gal-4]=0-4.0 mg/mL, 10 mM HEPES
# T3 construct: made in house
# T3 sequence (P56470 1-323): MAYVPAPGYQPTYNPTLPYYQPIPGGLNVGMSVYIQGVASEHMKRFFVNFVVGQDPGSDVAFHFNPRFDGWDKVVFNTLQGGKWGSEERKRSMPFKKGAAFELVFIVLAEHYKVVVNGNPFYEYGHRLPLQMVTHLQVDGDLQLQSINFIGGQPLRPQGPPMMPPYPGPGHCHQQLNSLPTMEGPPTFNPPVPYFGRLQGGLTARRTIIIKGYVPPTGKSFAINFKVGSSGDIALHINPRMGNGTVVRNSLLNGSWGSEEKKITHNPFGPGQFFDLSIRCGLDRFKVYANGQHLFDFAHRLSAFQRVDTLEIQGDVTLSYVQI
Substance,"structure of assemblies formed in water ([1]; injection into water, cryo-TEM)",further results
"(3,4,5)2Et8G1-PE-TRZi-Man2 [Compound 49ca]",mixtures of soft glycodendrimersomes and dendrimer aggregates; also recorded: formation of dendrimer aggregates is dominant with only few glycodendrimersomes being observed,
"(3,4)2Ethyl8G1-PE-TRZ-(galactose)2 [Compound 48aa]",dendrimer aggregates,
"(3,5)12G1-PE-TRZi-2EOMan2 [Compound 51bc]",soft vesicles,elastic modulus of membrane [2]: 163±30 dyne/cm; critical area strain [2]: 5-10%; behaviour in micropipette aspiration [2]: fluid unilamellar membrane
"(3,5)12G1-PE-spacer-TRZ-(mannose)2 [Compound 50bb]",dendrimer aggregates,
"(3,4,5)2Et8G1-PE-TRZi-Gal2 [Compound 49cc]",dendrimer aggregates,
"(3,4,5)12G1-PE-spacer-TRZ-(mannose)2 [Compound 50cb]",tubular glycodendrimersome bundles; also recorded: mixtures of tubular and soft spherical glycodendrimersomes and also bundles of tubular dendrimersomes,
"(3,4)12G1-PE-TRZ-1EOMan2 [Compound 51ad]",solid vesicles,behaviour in micropipette aspiration [2]: cannot be aspirated
"(3,5)2Et8G1-PE-TRZi-3EOGal2 [Compound 49bb]",only soft glycodendrimersomes,precipitation ([3]; 10 mg/mL final concentration in water): does not exhibit any sign of precipitation; stability of glycodendrimersomes in buffer [3]: stable in buffer; average vesicle size ([3]; concentration above 10 mg/mL): of the order of a micrometer; stability of vesicles in water and buffer ([3]; concentrations higher than 10 mg/mL): stable in water and buffer
"(3,4)12G1-PE-TRZ-(mannose)2 [Compound 46ab]",sheet-like solid lamellae,
"(3,4,5)12G1-PE-TRZi-3EOLac2 [Compound 53ca]",solid and polygonal glycodendrimersomes; also recorded: solid vesicles and solid lamellae,
"(3,5)2Et8G1-PE-TRZi-Man2 [Compound 49ba]",mixtures of soft glycodendrimersomes and dendrimer aggregates; also recorded: coexistence of thick-wall glycodendrimersomes and large dendrimer aggregates,
"(3,5)12G1-PE-TRZi-3EOMan2 [Compound 51bb]",soft vesicles,"agglutination with Con A, dependence on glycodendrimersome diameter (concanavalin A (Con A)): smallest glycodendrimersome provides the fastest agglutination; behaviour in micropipette aspiration [2]: fluid unilamellar membrane; stability of glycodendrimersomes in buffer [3]: stable in buffer"
"(3,4)12G1-PE-TRZi-3EOGal2 [Compound 51aa]",solid lamellae,
"(3,4)12G1-PE-TRZi-3EOMan2 [Compound 51ab]",solid vesicles,
"(3,4,5)2Et8G1-PE-TRZi-3EOLac2 [Compound 53fa]",soft glycodendrimersomes,stability of glycodendrimersomes in buffer [3]: stable in buffer
"(3,4,5)12G1-PE-TRZi-3EOMan2 [Compound 51cb]",solid lamellae,"morphological change on annealing ([1]; 0.5 mg/mL in water, annealing at 60° C. for 30 min): transition from solid lamellae to solid vesicles"
"(3,4)12G1-PE-TRZ-4EOLac2 [Compound 52ad]",mixture of soft vesicles and bundles of rod-like micelles,
"(3,4,5)12G1-PE-TRZi-2EOMan2 [Compound 51cc]",solid lamellae,
"(3,5)2Et8G1-PE-TRZi-Gal2 [Compound 49bc]",mixtures of dendrimer aggregates and cubosomes,
"(3,4)2Et8G1-PE-TRZ1-Gal2 [Compound 49ac]",only soft glycodendrimersomes,
"(3,4,5)12G1-PE-TRZ-(mannose)2 [Compound 46cb]",mixture of morphologies,structure of assemblies formed in water ([1]; concentrations higher than 0.5 mg/mL): polygonal glycodendrimersome; structure of assemblies formed in water ([1]; concentrations smaller than 0.5 mg/mL): nano-tubular morphology is dominant
"(3,4)12G1-PE-TRZi-3EOLac2 [Compound 53aa]",combination of soft glycodendrimersomes and rod-like micelles,

Substance,"structure of assemblies formed in water ([1]; injection into water, cryo-TEM)",further results
"(3,4)12G1-PE-spacer-TRZ-(galactose)2 [Compound 50aa]",solid lamellae and solid vesicles,behaviour in micropipette aspiration [2]: cannot be aspirated
"(3,4)12G1-PE-TRZi-2EOMan2 [Compound 51ac]",solid vesicles,
"(3,4)2Et8G1-PE-TRZi-3EOLac2 [Compound 53da]",glycodendrimersomes and solid lamellae; also recorded: soft glycodendrimersomes,
"(3,5)12G1-PE-spacer-TRZ-(galactose)2 [Compound 50ba]",dendrimer aggregates,
"(3,5)2Et8G1-PE-TRZi-3EOLac2 [Compound 53ea]",soft glycodendrimersomes,stability of glycodendrimersomes in buffer [3]: stable in buffer
"(3,4)2Ethyl8G1-PE-TRZ-(mannose)2 [Compound 48ab]",dendrimer aggregates,
"(3,5)12G1-PE-TRZi-3EOGal2 [Compound 51ba]",soft vesicles,agglutination with PA-IL (PA-IL): agglutination; also recorded: agglutinated; agglutination with VAA [4]: agglutinated; stability of glycodendrimersomes in buffer [3]: stable in buffer
"((3,4)12G-PE-TRZ-(galactose)2 [Compound 46aa]",sheet-like solid lamellae,
"(3,4,5)12G1-PE-TRZ-(galactose)2 [Compound 46ca]",solid lamellae,
"(3,4,5)12G1-PE-spacer-TRZ-(4EO-lactose)2 [Compound 52dd]",glycodendrimersomes,elastic modulus of membrane [2]: 49.6±15 dyne/cm; critical area strain [2]: greater than 20%; behaviour in micropipette aspiration [2]: fluid unilamellar membrane; also recorded: display hysteresis; stability of glycodendrimersomes in buffer [3]: stable in buffer
"(3,5)12G1-PE-TRZi-3EOLac2 [Compound 53ba]",soft glycodendrimersomes,stability of glycodendrimersomes in buffer [3]: stable in buffer
"(3,5)12G1-PE-TRZ-4EOLac2 [Compound 52bd]",glycodendrimersomes,agglutination with Gal-3 (galectin-3 (Gal-3)): agglutination; agglutination with Gal-4 (galectin-4 (Gal-4)): agglutination; agglutination with VAA [4]: agglutination effect can be clearly visualized; stability of glycodendrimersomes in buffer [3]: stable in buffer
"(3,4)2Et8G1-PE-TRZi-Man2 [Compound 49aa]",only soft glycodendrimersomes,
"(3,4,5)12G1-PE-spacer-TRZ-(galactose)2 [Compound 50ca]",mixture of tubular and spherical glycodendrimersomes; also recorded: mixtures of tubular and soft spherical glycodendrimersomes and also bundles of tubular dendrimersomes,
"(3,4,5)12G1-PE-TRZi-1EOMan2 [Compound 51cd]",solid lamellae,
"(3,4,5)2Et8G1-PE-TRZi-3EOGal2 [Compound 49cb]",only soft glycodendrimersomes,stability of glycodendrimersomes in buffer [3]: stable in buffer
"(3,4)12G1-PE-spacer-TRZ-(mannose)2 [Compound 50ab]",solid lamellae and solid vesicles,
"(3,4)2Et8G1-PE-TRZi-3EOGal2 [Compound 49ab]",only soft glycodendrimersomes,stability of glycodendrimersomes in buffer [3]: stable in buffer
"(3,4,5)12G1-PE-spacer-TRZ-(1EO-lactose)2 [Compound 52dc]",glycodendrimersomes,
"(3,5)12G1-PE-TRZi-1EOMan2 [Compound 51bd]",cubosomes,"symmetry of glycodendrimercubosome ([1]; 1.0 mg/mL, Fourier transform of cryo-TEM): Pn3m cubic symmetry"
"(3,4)12G1-PE-TRZi-Man2 [Compound 47ab]",solid glycodendrimersomes,
"(3,4,5)12G1-PE-TRZi-3EOGal2 [Compound 51ca]",solid lamellae,
